From EP3323812B1, “ARYLALKYL-AND ARYLOXYALKYL-SUBSTITUTED EPITHELIAL SODIUM CHANNEL BLOCKING COMPOUNDS” (Parion Sciences, Inc., priority 2012, dated 2014)

How the values were obtained:
[1] = test system: CBE cells; test: Airway hydration: apical surface liquid retention on primary CBE cells at air-liquid interface; format: cell-based, canine; details: 10 µM, after 8 hours, 50 µl applied to apical surface of CBE cells
Protocol: Primary CBE cells are plated onto collagen-coated, porous membranes maintained at an air-liquid interface to assess maintenance of surface liquid volume over time. […] To reduce artifact due to an apical carbohydrate osmotic gradient upon water loss, glucose was not included in the apical buffer.

[2] = molecular target: Muc5B (Homo sapiens, UniProt Q9HC84); details: in vitro; also printed as 3.26%; cited from earlier work

## N=C(N)NC(=O)c1nc(Cl)c(N)nc1N [Amiloride, amiloride]
[1]
  surface liquid retained (% initial volume): 25±19.2%

## CC(=O)N[C@@H](CS)C(=O)O [NAC, N-acetyl cysteine]
[2]
  concentration required to fully reduce Muc5B: 200 mM
